Laboratory results as given in the supplement of paper PMC10307832.

Assays:
Experiment in all cases: relative viability (nuclei count vs DMSO), 5 days (fraction); higher = more cells survive
[1] = compound: CCn1c(-c2nonc2N)nc2cnc(Oc3cccc(NC(=O)c4ccc(OCCN5CCOCC5)cc4)c3)cc21 + Cc1nc(NC(=O)N2CCC[C@H]2C(N)=O)sc1-c1ccnc(C(C)(C)C(F)(F)F)c1 [Alpelisib] (partner 2 µM)
Summary of the method: (§1)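 Relative viability was taken as the ratio of nuclei in treated wells to nuclei in vehicle wells. Lung cancer cell lines in 1536-well plates received compounds by pin tool one day after seeding, either one drug alone or a fixed anchor-drug dose plus five library-drug doses (not always all listed) in √10 steps. Nuclei were counted on 4× images after 5 days of treatment, and values are medians of duplicate plates.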

[2] = compound: CCC1=CN=CN=C1N2CCN(CC2)CC3=NC4=C(N3)C=C(C=C4)C(F)(F)F + NC(=O)Nc1cc(-c2cccc(F)c2)sc1C(=O)N[C@H]1CCCNC1 [AZD7762] (partner 0.2 µM)
Summary of the method: as §1

[3] = compound: CCC1=CN=CN=C1N2CCN(CC2)CC3=NC4=C(N3)C=C(C=C4)C(F)(F)F + O=C(CCCCCCC(=O)Nc1ccccc1)NO [Vorinostat] (partner 1 µM)
Summary of the method: as §1

[4] = compound: CCn1c(-c2nonc2N)nc2cnc(Oc3cccc(NC(=O)c4ccc(OCCN5CCOCC5)cc4)c3)cc21 + CC(C)C[C@H](NC(=O)[C@H](Cc1ccccc1)NC(=O)c1cnccn1)B(O)O [Bortezomib] (partner 0.002 µM)
Summary of the method: as §1

| Cell Line | relative viability ([1]; first compound 0.04 µM) | relative viability ([1]; first compound 0.1265 µM) | relative viability ([1]; first compound 0.4 µM) | relative viability ([1]; first compound 1.265 µM) | relative viability ([1]; first compound 4 µM) | relative viability ([2]; first compound 0.04 µM) | relative viability ([2]; first compound 0.1265 µM) | relative viability ([2]; first compound 0.4 µM) | relative viability ([2]; first compound 1.265 µM) | relative viability ([2]; first compound 4 µM) | relative viability ([3]; first compound 0.04 µM) | relative viability ([3]; first compound 0.1265 µM) | relative viability ([3]; first compound 0.4 µM) | relative viability ([3]; first compound 1.265 µM) | relative viability ([3]; first compound 4 µM) | relative viability ([4]; first compound 0.04 µM) | relative viability ([4]; first compound 0.1265 µM) | relative viability ([4]; first compound 0.4 µM) | relative viability ([4]; first compound 1.265 µM) | relative viability ([4]; first compound 4 µM) |
| --- | --- | --- | --- | --- | --- | --- | --- | --- | --- | --- | --- | --- | --- | --- | --- | --- | --- | --- | --- | --- |
| NCI-H1975 | 0.548 | 0.439 | 0.401 | 0.221 | 0.202 | 0.662 | 0.744 | 0.713 | 0.645 | 0.746 | 0.796 | 0.703 | 0.704 | 0.654 | 0.687 | 0.244 | 0.263 | 0.227 | 0.177 | 0.165 |
| NCI-H1993 | 0.758 | 0.77 | – | 0.719 | 0.668 | 0.747 | 0.822 | 0.726 | 0.783 | 0.678 | 0.846 | 0.983 | 0.648 | 0.816 | 0.964 | 1.09 | 1.16 | – | 0.882 | 1.02 |
| NCI-H2085 | 1.15 | 0.959 | 0.86 | 0.869 | 0.845 | 0.75 | 0.941 | 0.987 | 0.791 | 1.03 | 0.728 | 0.709 | 0.697 | 0.763 | 0.766 | 1.11 | 1.01 | 0.86 | 0.872 | 0.861 |
| NCI-H2087 | – | 0.767 | 0.886 | 0.838 | 0.524 | 1.34 | 1.26 | 1.43 | 1.17 | 1.21 | 0.929 | 0.881 | 0.707 | 0.659 | 0.638 | – | 0.591 | 0.778 | 0.473 | 0.459 |
| NCI-H2126 | 0.804 | 0.703 | 0.728 | 0.822 | 0.789 | 0.97 | 1.02 | 0.957 | 1.02 | 1.17 | 0.794 | 0.781 | 0.766 | 0.595 | 0.742 | 1.14 | 1.13 | 0.918 | 1.08 | 1.08 |
| NCI-H2347 | 1.12 | 1.06 | 0.906 | 0.511 | 0.588 | 0.708 | 0.699 | 0.823 | 0.645 | 0.905 | 0.61 | 0.673 | 0.649 | 0.321 | 0.516 | 1.1 | 0.959 | 0.792 | 0.49 | 0.649 |
| NCI-H2405 | 0.893 | 0.425 | 0.368 | 0.326 | 0.274 | 0.772 | 0.735 | 0.674 | – | 0.901 | 1.03 | 0.961 | 0.925 | – | 1.12 | 1.05 | 0.744 | 0.348 | 0.277 | 0.973 |
| NCI-H3122 | 0.831 | 0.885 | 0.782 | 0.729 | 0.82 | 0.971 | 0.947 | 0.957 | 1.04 | 0.977 | 1.04 | 0.863 | 1.01 | 1.03 | 0.875 | 1.05 | 1.01 | 0.93 | 0.691 | 0.738 |
| PC-3 [JPC-3] | 1.1 | 1.02 | 1.01 | 1.07 | 1.05 | – | 0.688 | 0.69 | 0.683 | 0.808 | – | 0.737 | 0.738 | 0.701 | 0.885 | 0.958 | 0.867 | 0.727 | 0.772 | 0.63 |
